Reference: PMC12002301, “Discovery and functional characterization of a bombesin-type neuropeptide signaling system in an invertebrate” (Proceedings of the National Academy of Sciences of the …, 2025)

System: tube foot preparations
Assay: In vitro contraction of tube foot preparations
Set-up: species or system Asterias rubens
Settings: words, ArBN 10^-9 to 10^-6 M
Description: ArBN (EPRRNYNRVFGPTY-NH2), ArBN5-14 (NYNRVFGPTY-NH2), and ArBNP65-81 (EPMPSSLALYIANLSP-NH2), were tested for effects on in vitro cardiac stomach and tube foot preparations from A. rubens. The preparations were dissected as described previously ([43], [59]–[61]), with the organs immersed in ice-cold artificial seawater during dissection. A description of the methods employed for investigation of in vitro effects of ArBN on cardiac stomach and tube foot preparations from A. rubens is included in SI Appendix, SI Methods. […]
Wax was removed from slides using xylene (3 × 10 min) and then slides were immersed in 100% ethanol (2 × 10 min). 0.3% hydrogen peroxide (VWR Chemicals, UK) in methanol was used to quench endogenous peroxidases for 30 min and then an ethanol series (90%, 70%, 50%), distilled water and PBST were used to rehydrate the tissue sections. 5% goat serum (Sigma-Aldrich, UK) made up in PBST was used for blocking for 2 h at room temperature. […]
All the dissected preparations were set up in an aerated organ bath filled with 20 ml artificial seawater maintained at approximately 11°C. Changes in the contractile state of preparations were detected by the transducer, which was linked via a bridge amplifier (FE221 Bridge Amp, ADInstruments Ltd, Oxford, UK) to data acquisition hardware (PowerLab 2/36, ADInstruments Ltd, Oxford, UK). […]

| Substance | effect on tube foot preparations |
| --- | --- |
| EPMPSSLALYIANLSP-NH2 [ArBNP65-81, C-terminally amidated 16-residue peptide predicted to be derived from residues 65 to 81 of ArBNP] | neither ArBN5-14 nor ArBNP65-81 had any observable effect |
| NYNRVFGPTY-NH2 [ArBN5-14, C-terminally amidated 10-residue peptide corresponding to the C-terminal region of ArBN] | neither ArBN5-14 nor ArBNP65-81 had any observable effect |
